# Results from patent US7399784B2, “Tocopherol and tocotrienol anti-obesity medicaments” (Children's Hospital & Research Center at Oakland, priority 2002, dated 2008).
# What was measured:
# [1] = tested on: embryonic cell (C3H10T1/2); assay: Adipocyte differentiation of C3H10T1/2 cells induced with insulin plus drugs; type: cell-based; conditions: differentiation induced with insulin plus indomethacin, troglitazone or 15-deoxy-delta(12,14)-prostaglandin-J2
# Description: For these example, differentiation was induced in the presence of insulin with drugs, including indomethacin, and troglitazone, one of the anti-diabetes drugs of the thiazolidinedione family, as well as 15-deoxy-delta (12, 14)-prostaglandin-J2, a putative endogenous ligand for the peroxisome proliferator-activated receptor-gamma. Our results clearly indicate that tocopherols and tocotrienols inhibit adipogenesis.
# [2] = tested on: leptin; conditions: healthy individuals; Ismermann et al. 1999; cited from earlier work
# [3] = tested on: adipocytes; assay: Weight gain and adipocyte triglyceride accumulation in mice fed a high-fat diet; type: in vivo, BALB/c mice; conditions: food admixture 0.1%, 3%, 0.02% or 0.01%
# Procedure: We evaluate weight gain and triglyceride accumulation in adipocytes in mice fed a high-fat diet. Six-week-old BALB/c mice are fed powdered chow with various tocopherols and tocotrienols and mixtures thereof, as 0.1%, 3%, 0.02%, or 0.01% food admixtures. For histological analysis of adipose and hepatic tissues and determination of adipocyte size, adipose tissue is removed from each animal and fixed in 10% formaldehyde/PBS and maintained at 4° C. until use. Fixed specimens are dehydrated, embedded in tissue-freezing medium and frozen in dry ice and acetone. White adipose tissue is cut into 10-μm sections, and the sections mounted on silanized slides. The adipose tissue is stained with hematoxylin and eosin (H&E). Mature white adipocytes are identified by their characteristic […] appearance. Total adipocyte areas are traced manually and analyzed with Win ROOF software (Mitani Co. Ltd., Chiba, Japan). White adipocyte areas are measured in 400 or more cells per mouse in each group according to methods previously described (Kubota, N. et al.1999, Mol. Cell. 4:597-609).
# [4] = tested on: insulin-secreting cells; conditions: Sjoholm et al. 2000; cited from earlier work
# [5] = treatment of diabetes; Malinowski et al. 2000; cited from earlier work
compound,measurement,setting,value
"Cc1c(C)c2c(c(C)c1O)CC[C@@](C)(CCC[C@H](C)CCC[C@H](C)CCCC(C)C)O2 [alpa-T, alpha-tocopherol, reference compound]",anti-adipogenesis activity (inhibition of differentiation to adipocytes),[1],much less effective
same,intracellular triglyceride accumulation,[1],much less effective
same,leptin expression,[2],induces leptin expression
"Cc1cc(O)cc2c1O[C@](C)(CCC[C@H](C)CCC[C@H](C)CCCC(C)C)CC2 [delta-T, delta-tocopherol]",anti-adipogenesis activity (inhibition of differentiation to adipocytes),[1],dose-dependent anti-adipogenesis activity
same,intracellular triglyceride accumulation,[1],decrease intracellular triglyceride accumulation
same,triglyceride accumulation in adipocytes,[3],reduced triglyceride accumulation in adipocytes
same,weight gain,[3],reduced weight gain
CC(C)=CCC/C(C)=C/CC/C(C)=C/CC[C@]1(C)CCc2cc(O)cc(C)c2O1 [delta-tocotrienol],anti-adipogenesis activity (inhibition of differentiation to adipocytes),[1],dose-dependent anti-adipogenesis activity
same,intracellular triglyceride accumulation,[1],decrease intracellular triglyceride accumulation
same,triglyceride accumulation in adipocytes,[3],reduced triglyceride accumulation in adipocytes
same,weight gain,[3],reduced weight gain
"Cc1c(O)cc2c(c1C)O[C@](C)(CCC[C@H](C)CCC[C@H](C)CCCC(C)C)CC2 [gamma-T, gamma-tocopherol]",anti-adipogenesis activity (inhibition of differentiation to adipocytes),[1],dose-dependent anti-adipogenesis activity
same,intracellular triglyceride accumulation,[1],decrease intracellular triglyceride accumulation
same,triglyceride accumulation in adipocytes,[3],reduced triglyceride accumulation in adipocytes
same,weight gain,[3],reduced weight gain
same,protection against functional inhibition by nitric oxide,[4],partially protects
CC(C)=CCC/C(C)=C/CC/C(C)=C/CC[C@]1(C)CCc2cc(O)c(C)c(C)c2O1 [gamma-tocotrienol],anti-adipogenesis activity (inhibition of differentiation to adipocytes),[1],dose-dependent anti-adipogenesis activity
same,intracellular triglyceride accumulation,[1],decrease intracellular triglyceride accumulation
same,triglyceride accumulation in adipocytes,[3],reduced triglyceride accumulation in adipocytes
same,weight gain,[3],reduced weight gain
CCc1ccc(CCOc2ccc(CC3SC(=O)NC3=O)cc2)nc1 (stereo not drawn) [proglitazone],weight gain and obesity,[5],commonly leads to weight gain and obesity
CN(CCOc1ccc(CC2SC(=O)NC2=O)cc1)c1ccccn1 (stereo not drawn) [rosiglitazone],weight gain and obesity,[5],commonly leads to weight gain and obesity
Cc1c(C)c2c(c(C)c1O)CCC(C)(COc1ccc(CC3SC(=O)NC3=O)cc1)O2 (stereo not drawn) [troglitazone],weight gain and obesity,[5],commonly leads to weight gain and obesity
alpha-tocotrienol,anti-adipogenesis activity (inhibition of differentiation to adipocytes),[1],dose-dependent anti-adipogenesis activity
same,intracellular triglyceride accumulation,[1],decrease intracellular triglyceride accumulation
same,triglyceride accumulation in adipocytes,[3],reduced triglyceride accumulation in adipocytes
same,weight gain,[3],reduced weight gain
